# Measurements as given in US11021529B2, “Antimicrobial constructs and uses thereof” (priority 2017, dated 2021).
# Where two headings read alike, the source gives them in different places.
# Columns and labels:
# Type in all cases: cell-based
# P. aeruginosa [1] = experiment: Checkerboard assays (fractional inhibitory concentration indices) with WLBU2 potentiator; settings: drug combined with WLBU2 potentiator (W2-grafted dextran)
# Text: In some embodiments, checkerboard assays can be used to determine if two antimicrobial agents have synergy, additive, or antagonistic effects when dosed together. Checkboard assays determine the interaction and potency of two test articles when used concurrently. Using Lorian methodology, the effect on potency of the combination of antimicrobials in comparison to their individual activities, represented as the Fractional Inhibitory Concentration (FIC) index value. To quantify the interactions between the antimicrobials being tested, the FIC index (the combination of antimicrobials that produced the greatest change from the individual antimicrobial's MIC) value is calculated for each strain and antimicrobial combination: (A/MICA)+(B/MICB)=FICA+FICB=FIC Index, where A and B are the MIC of each antimicrobial in combination (in a single well), and MICA and MICB are the MIC of each antimicrobial individually.
# P. aeruginosa strain Z61 = experiment: MIC in hyperpermeable P. aeruginosa strain Z61 (Table 3); settings: Pseudomonas aeruginosa
# [2] = tested on: P. aeruginosa strain PA01; experiment: MIC in wild-type P. aeruginosa strain PA01 (Table 3); settings: Pseudomonas aeruginosa
# [3] = tested on: P. aeruginosa strain PA14; experiment: MIC in wild-type P. aeruginosa strain PA14 (Table 3); settings: Pseudomonas aeruginosa
# P. aeruginosa [4] = experiment: Super-resolution microscopy of membrane association and permeabilization; settings: fluorescently labeled peptide or potentiator
# Text: In order to identify peptides which would improve the penetration of small molecules into bacteria library of 30 peptide-linezolid conjugates was synthesized using antimicrobial peptides curated from literature. Linezolid is a small molecule that is normally unable to kill gram-negative bacteria due to its inability to cross the membrane. The peptide-linezolid library was screened in a growth inhibition assay in P. aeruginosa. […] WLBU2 is part of a family of helical cationic peptides that were designed to specifically kill P. aeruginosa. Other members of this peptide family, WLBU1 and LBU2, were synthesized in tandem with P. aeruginosa targeting peptides (P9b and EKR) and conjugated to linezolid. These peptide-drug conjugates were evaluated for their ability to inhibit P. aeruginosa and cross validated for mammalian cell toxicity.
# To visualize membrane permeabilization of WLBU2, P. aeruginosa was incubated with Alexa Fluor 488-labeld WLBU2 potentiator for 15 minutes and subsequently washed 2 times with phosphate buffer solution to remove unbound potentiator. Bacteria were then stained with a membrane dye.
# [5] = tested on: P. aeruginosa strain PA01; experiment: Growth (MIC) assay in P. aeruginosa strain PA01; settings: peptide concentration range 0-5 μM
# Protocol: The minimal inhibitory concentrations (MIC) were measured in P. aeruginosa and cell viability in mammalian cells at a peptide concentration range between 0-5 μM. Toxicity was evaluated in NIH 3T3 mouse fibroblasts and Neuro-2a neuroblastoma. To negatively select against tandem peptides that may cause red blood lysis when administered in animals, the peptides were also screened in a hemolysis assay. In the range of concentrations tested, no membrane-active peptide had inhibitory activity against bacteria when not in tandem with dKK (FIG. 2), supporting the rationale of the tandem peptide architecture. At these concentrations, dKK alone also had no activity against P. aeruginosa (FIG. 2). Since it is advantageous to identify antibacterial agents which have narrow-spectrum activity, antibacterial efficacy against other gram-negative bacterial species (E. coli) and a gram-positive bacterial species (S. aureus; FIG. 1B) was also assessed. The best performing tandem peptide was lactoferrin-dKK (LACT-dKK). Lactoferrin peptide ([…], SEQ ID NO: 1) is from a protein in the transferrin family with known membrane interactions with bacteria. […]
# For each experiment, P. aeruginosa strain PA01 was started from a frozen glycerol stock and cultured overnight. […] The number of colony forming units (CFU) per mL was determined by titering cultures with known absorbance values. […]
compound,measurement,setting,value
CO[C@@H]1[C@@H](OC(N)=O)[C@@H](O)[C@H](Oc2ccc3c(O)c(NC(=O)c4ccc(O)c(CC=C(C)C)c4)c(=O)oc3c2C)OC1(C)C [novobiocin],"fractional inhibitory concentration indices (FICIs), interaction with WLBU2 potentiator",P. aeruginosa [1],synergy
O=C(O)c1cn(C2CC2)c2cc(N3CCNCC3)c(F)cc2c1=O [Ciprofloxacin],MIC,P. aeruginosa strain Z61,< 0.25 µg/mL
same,MIC,"[2]; P. aeruginosa strain PA01, read-out: MIC",2 µg/mL
same,MIC,"[3]; P. aeruginosa strain PA14, read-out: MIC",0.5 µg/mL
RRWVRRVRRWVRRVVRVVRRWVRR (Synthetic WLBU2),localization in P. aeruginosa (super-resolution microscopy),P. aeruginosa [4],able to associate with the membrane and localize to the cytosol
D(KLAKLAK)2 (KLAKLAKKLAKLAK; D-amino acids; Synthetic - antimicrobial peptide comprised of D-amino acids) [dKK],inhibitory activity against bacteria / P. aeruginosa,[5],no activity
CC(=O)NC[C@H]1CN(c2ccc(N3CCOCC3)c(F)c2)C(=O)O1 [Linezolid],MIC,P. aeruginosa strain Z61,8 µg/mL
same,MIC,[2]; PA01,> 128 µg/mL
same,MIC,[3]; PA14,> 128 µg/mL
C=C[C@]1(C)C[C@@H](OC(=O)CS[C@@H]2C[C@H]3CC[C@@H](C2)N3C)[C@]2(C)[C@H](C)CC[C@]3(CCC(=O)[C@H]32)[C@@H](C)[C@@H]1O [retapamulin],"fractional inhibitory concentration indices (FICIs), interaction with WLBU2 potentiator",P. aeruginosa [1],synergy
